# Reference: patent US10442833B1 (KING SAUD UNIVERSITY, priority 2018, dated 2019)
# Key:
# [1] = test system: Absidia corymbifera (RCMB 02564); test: Agar well diffusion, Absidia corymbifera; type: cell-based; settings: Reference Drug, 30 μg/mL; well diameter 6 mm; 37° C., 18 to 24 h
# Procedure: (§1) Antimicrobial tests were carried out by agar well diffusion according to the National Committee for Clinical Laboratory Standards (NCCLS) criteria.
# (§2) Bacterial and fungal suspensions were prepared at 0.5 McFarland standard turbulence in a volume of 100 μL and were cultivated on Mueller-Hinton agar and Sabouraud dextrose media punched with 6-mm diameter wells for the bacteria and fungi, respectively. Then, 100 μl of 10% tested sample was added to the wells, while 10% DMSO was used as the negative control. Ampicillin, gentamicin, and amphotericin B (30 μg/mL) were used as standard agents against the Gram-positive bacteria, Gram-negative bacteria, and fungi, respectively. After incubation of the plates at 37° C. for 18 to 24 h, the antimicrobial activity was evaluated by measuring the diameter of the inhibition zones. Each test was performed in triplicate and the average of the results was calculated. The extraction solvents were used as negative controls (NCCLS, 2002; 2004).
# [2] = test system: Geotricum candidum (RCMB 05007); test: Agar well diffusion, Geotricum candidum; type: cell-based; settings: Reference Drug, 30 μg/mL; well diameter 6 mm; 37° C., 18 to 24 h
# Procedure: as §1, §2
# [3] = test system: Candida albicans (RCMB); test: Agar well diffusion, Candida albicans; type: cell-based; settings: Reference Drug, 30 μg/mL; well diameter 6 mm; 37° C., 18 to 24 h
# Procedure: as §1, §2
# [4] = test system: Staphylococcus aureus (RCMB 010027); test: Agar well diffusion, Staphylococcus aureus; type: cell-based; settings: Reference Drug, 30 μg/mL; well diameter 6 mm; 37° C., 18 to 24 h; in mm
# Procedure: (§3) Antimicrobial tests were carried out by agar well diffusion according to the National Committee for Clinical Laboratory Standards (NCCLS) criteria. […] Then, 100 μl of 10% tested sample was added to the wells, while 10% DMSO was used as the negative control. […] Each test was performed in triplicate and the average of the results was calculated. The extraction solvents were used as negative controls (NCCLS, 2002; 2004).
# [5] = test system: Staphylococcus epidermidis (RCMB 010024); test: Agar well diffusion, Staphylococcus epidermidis; type: cell-based; settings: Reference Drug, 30 μg/mL; well diameter 6 mm; 37° C., 18 to 24 h; in mm
# Procedure: as §3
# [6] = test system: Streptococcus pyogenes (RCMB 010015); test: Agar well diffusion, Streptococcus pyogenes; type: cell-based; settings: Reference Drug, 30 μg/mL; well diameter 6 mm; 37° C., 18 to 24 h; in mm
# Procedure: as §3
# [7] = test system: Hela cells; settings: reported by Al-Massarani et al., Molecules 2017; cited from earlier work
# [8] = test system: A549 cells; settings: reported by Al-Massarani et al., Molecules 2017; cited from earlier work
# [9] = test system: MDA (breast cancer cells); settings: reported by Al-Massarani et al., Molecules 2017; cited from earlier work
# [10] = test system: Proteous vulgaris (RCMB 010085); test: Agar well diffusion, Proteous vulgaris; type: cell-based; settings: Reference Drug, 30 μg/mL; well diameter 6 mm; 37° C., 18 to 24 h; in mm
# Procedure: as §3
# [11] = test system: Klebsiella pneumoniae (RCMB 0010093); test: Agar well diffusion, Klebsiella pneumoniae; type: cell-based; settings: Reference Drug, 30 μg/mL; well diameter 6 mm; 37° C., 18 to 24 h; in mm
# Procedure: as §3
# [12] = test system: Salmonella enteritidis (RCMB 010084); test: Agar well diffusion, Salmonella enteritidis; type: cell-based; settings: Reference Drug, 30 μg/mL; well diameter 6 mm; 37° C., 18 to 24 h; in mm
# Procedure: as §3
compound,measurement,setting,value
C[C@@H]1[C@H](O)[C@@H](C)/C=C/C=C/C=C/C=C/C=C/C=C/C=C/[C@H](O[C@@H]2O[C@H](C)[C@@H](O)[C@H](N)[C@@H]2O)C[C@@H]2O[C@](O)(C[C@@H](O)C[C@@H](O)[C@H](O)CC[C@@H](O)C[C@@H](O)CC(=O)O[C@H]1C)C[C@H](O)[C@H]2C(=O)O [Amphotericin B],Zone of Inhibition,[1],23.0
same,Zone of Inhibition,[2],27.0
same,Zone of Inhibition,[3],25.7
CC1(C)S[C@@H]2[C@H](NC(=O)[C@H](N)c3ccccc3)C(=O)N2[C@H]1C(=O)O [Ampicillin],Zone of Inhibition,[4],27.3
same,Zone of Inhibition,[5],25.0
same,Zone of Inhibition,[6],26.3
C[C@H]1[C@H](C)CC[C@]2(C(=O)O)CC[C@]3(C)C(=CC[C@@H]4[C@@]5(C)CC[C@H](O)C(C)(C)[C@@H]5CC[C@]43C)[C@H]12 [ursolic acid],IC50,[7],50.2 µg/mL
same,IC50,[8],65.2 µg/mL
same,IC50,[9],47.76 µg/mL
Gentamycin,Zone of Inhibition,[10],23.4
same,Zone of Inhibition,[11],26.4
same,Zone of Inhibition,[12],25.2
